According to US9914735B2, “Heteroaryl Syk inhibitors” (Boehringer Ingelheim International GmbH, priority 2014, dated 2018):
Where two headings read alike, the source gives them in different places.

Experiments:
[1] = Human liver microsomal stability test; assay type: in vitro ADME; settings: for microsomal stability Cl [% Qh]: human liver microsomes, Qh = liver blood flow
Method: The metabolic degradation for a specific SYK-inhibitor is performed at 37° C. with pooled human liver microsomes (human liver microsomes are commercially available as “BD UltraPool™” by Corning Life Sciences, Fogostraat 12, 1060 LJ Amsterdam, The Netherlands). The final incubation volume of 100 μl per time point contains TRIS buffer pH 7.6 at RT (0.1 M), magnesium chloride (5 mM), microsomal protein (1 mg/ml) and the test compound at a final concentration of 1 μM.
Following a short preincubation period at 37° C., the reaction is initiated by addition of beta-nicotinamide adenine dinucleotide phosphate in its reduced form (NADPH, 1 mM) and terminated by transfering an aliquot into solvent after different time points. Additionally, the NADPH-independent degradation is monitored in incubations without NADPH, terminated at the last time point.
The quenched (terminated) incubations are then pelleted by centrifugation (10000 g, 5 min).
An aliquot of the supernatant is assayed by LC-MS/MS for the remaining amount of parent compound. The half-life (t1/2 INVITRO) is determined by the slope of the semilogarithmic plot of the concentration-time profile.
The intrinsic clearance (CL_[…]) is calculated by considering the amount of protein in the incubation: CL_[…][μl/min/mg protein]=(Ln 2/(t1/2 INVITRO[min]*protein content[mg/ml]))*1000
The protein content [mg/ml] was determined with the “Bicinchoninic Acid Kit” of Sigma Aldrich (commercially available).
The upscaled intrinsic Clearance (CL_UP_INT) is calculated by considering the liver weight [g liver/kg body weight] and the microsomal recovery [mg protein/g liver]: CL_UP_INT[ml/min/kg]=0.001*CL_[…]*liver weight*microsomal recovery • with microsomal recovery=45 mg protein/g liver • with liver weight=25.7 g liver/kg body weight
The percent hepatic blood flow (% Qh) is finally calculated by considering the human liver blood flow Q [ml/min/kg]: % Qh[%]=((Q*CL_UP_INT)/(Q+CL_UP_INT)/Q)*100 • with liver blood flow (Q)=20.7 ml/min/kg.

[2] = biological target: Recombinant human Aurora B (amino acids 1-344) (Homo sapiens (Human), UniProt Q96GD4); test: Aurora B kinase test (ADP Glo luminescence); assay type: biochemical
Recombinant human Aurora B (amino acids 1-344), sequence (Q96GD4 whole entry, the tested form may be a part): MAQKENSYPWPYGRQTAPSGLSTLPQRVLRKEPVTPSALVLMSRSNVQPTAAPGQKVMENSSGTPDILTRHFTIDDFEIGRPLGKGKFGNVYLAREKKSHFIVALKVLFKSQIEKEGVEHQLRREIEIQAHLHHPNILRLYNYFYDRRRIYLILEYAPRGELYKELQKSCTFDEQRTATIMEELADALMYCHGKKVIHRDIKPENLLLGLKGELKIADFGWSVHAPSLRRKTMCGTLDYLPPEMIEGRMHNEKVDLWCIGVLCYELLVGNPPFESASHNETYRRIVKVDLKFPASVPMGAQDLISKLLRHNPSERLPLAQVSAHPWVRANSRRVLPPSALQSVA
Method: The activity of the Aurora B kinase protein was determined using the ADP Glo® Luminescence Kinase test (Promega; V9103X).
Serial Dilution is done in 1:10 steps in 100% DMSO.
Then 20 μl Kinase detection mix (Detection Buffer #V913B Promega; Kinase Detection Substrate #V914B Promega) were added and incubated for 40 minutes at room temperature.
(§1) The output file of the reader is a csv file that contains the well number and measured RLU. For data evaluation and calculation, the measurement of the negative control was set as 0% ctrl and the measurement of the positive control was set as 100% ctrl. Based on this values the % value for the measurement of each substance concentration was calculated using an Assay Explorer software (Accelrys). Normally, the % ctrl values calculated are between 0% and 100% values but may also occur outside these limits in individual cases based on variability or compound characteristics. The IC50 values were calculated from the % ctrl values using Assay Explorer software. Calculation: [y=(a−d)/(1+(x/c)^b)+d], a=low value, d=high value; x=conc M; c=IC50 M; b=hill; y=% ctrl.

FLT3 = FLT3 (Homo sapiens (Human), UniProt P36888); test: FLT3 kinase test (Z'-LYTE); assay type: biochemical
FLT3, sequence (P36888 27-993): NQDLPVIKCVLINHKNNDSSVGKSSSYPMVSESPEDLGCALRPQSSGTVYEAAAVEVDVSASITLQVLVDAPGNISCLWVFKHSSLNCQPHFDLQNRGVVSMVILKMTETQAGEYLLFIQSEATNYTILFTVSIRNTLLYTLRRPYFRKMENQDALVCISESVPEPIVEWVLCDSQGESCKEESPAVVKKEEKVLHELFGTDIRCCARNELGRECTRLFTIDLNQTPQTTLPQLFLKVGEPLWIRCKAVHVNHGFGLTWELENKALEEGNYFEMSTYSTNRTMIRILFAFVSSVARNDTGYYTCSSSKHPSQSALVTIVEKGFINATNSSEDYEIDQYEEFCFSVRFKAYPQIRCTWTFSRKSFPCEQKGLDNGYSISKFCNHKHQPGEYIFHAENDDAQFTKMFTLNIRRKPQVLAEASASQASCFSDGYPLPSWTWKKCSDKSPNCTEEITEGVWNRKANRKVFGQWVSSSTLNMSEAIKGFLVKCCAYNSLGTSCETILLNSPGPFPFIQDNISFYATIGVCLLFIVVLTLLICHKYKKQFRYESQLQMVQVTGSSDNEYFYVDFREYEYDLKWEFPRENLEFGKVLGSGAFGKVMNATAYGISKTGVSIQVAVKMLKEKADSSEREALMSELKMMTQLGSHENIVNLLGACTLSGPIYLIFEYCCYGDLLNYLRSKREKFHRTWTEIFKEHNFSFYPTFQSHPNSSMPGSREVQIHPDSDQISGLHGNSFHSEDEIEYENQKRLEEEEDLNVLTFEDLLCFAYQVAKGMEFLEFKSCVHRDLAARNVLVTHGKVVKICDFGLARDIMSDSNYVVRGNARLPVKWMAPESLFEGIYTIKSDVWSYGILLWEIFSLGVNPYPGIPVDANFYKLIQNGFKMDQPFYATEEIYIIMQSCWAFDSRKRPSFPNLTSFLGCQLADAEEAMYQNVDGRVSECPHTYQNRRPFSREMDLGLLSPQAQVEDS
Method: The activity of FLT3 is measured using the Z′-LYTETM assay technology from Invitrogen (#PV3191)
The reaction is started by addition of 2.5 μl of the 4×ATP solution.
Positive controls are reaction mixtures containing no test compound; negative controls (blanks) are reaction mixtures containing no kinase. As a further control, the phosphopeptide solution is added to wells without kinase (=100% phosphorylation control).
The reaction is performed for 1 h at room temperature before 5 μl of the development solution is added. After a further incubation for 1 h at room temperature 5 μl of the stop reagent is added.
The output text file is evaluated in an “MS-Excel—VB-Makro” and “GraphPadPrism” (Version 5) (GraphPad Software Inc.) is used to calculate the results. Data for the inhibition of FLT3 are reported in M. data for the inhibition of the protease are reported in % CTL.

[3] = biological target: Recombinant human Syk (amino acids 342-635), GST-Syk kinase fusion protein (Homo sapiens (Human), UniProt P43405); test: Syk kinase test (Kinase Glo luminescence); assay type: biochemical; settings: Table 1; read-out: SYK-inhibition IC50-value
Method: as §1, with “measured relative light units (RLU).” for “measured RLU.”, “as 100%” for “as 0%”, “as 0%” for “as 100%”, “software. Calculation:[y=(a−d)/(1+(x/c)^b)+d]” for “software. Calculation: [y=(a−d)/(1+(x/c)^b)+d],”

[4] = Table 1, read-out: AURB-inhibition IC50-value
[5] = Table 1, read-out: FLT3-inhibition IC50-value
[6] = read-out: IC50-values with regard to AURB

Compound | IC50 [2, 4] [µM] | IC50 [3] [µM] | IC50 (FLT3; [5]) [µM] | also measured
C[C@@H](Oc1cc(-c2ccc(CN3CCOCC3)cc2)cc2ncccc12)[C@H]1CNC(=O)C1 [43 of WO 2013/014060] | – | – | – | microsomal stability Cl [% Qh] [1]: <23 % Qh; IC50 ([2]; read-out: IC50 in μM (AURB-Inhibition)): 0.144 µM; IC50 (FLT3; read-out: IC50 in μM (FLT3-Inhibition)): 0.157 µM
C[C@@H](Oc1nc(-c2ccc(N3CCOCC3)nc2)cc2ncccc12)[C@H]1CNC(=O)C1 [45 of WO 2011/092128] | – | – | – | microsomal stability Cl [% Qh] [1]: 53 % Qh
Cc1c(-c2cc(O[C@H](C)[C@H]3CNC(=O)C3)c3cccnc3c2)cnn1C [112 of WO 2013/014060] | – | – | – | microsomal stability Cl [% Qh] [1]: <23 % Qh
CCCn1cc(-c2cc(O[C@H](C)[C@H]3CNC(=O)C3)c3cccnc3c2)cn1 [114 of WO 2013/014060] | – | – | – | microsomal stability Cl [% Qh] [1]: 26 % Qh
CC(C)n1cc(-c2cc(O[C@H](C)[C@H]3CNC(=O)C3)c3cccnc3c2)cn1 [115 of WO 2013/014060] | – | – | – | microsomal stability Cl [% Qh] [1]: <23 % Qh
CCn1cc(-c2cc3nn(C)cc3c(O[C@H](C)[C@H]3CNC(=O)C3)n2)cn1 [Example 58, (4R)-4-[(1R)-1-[6-(1-ethylpyrazol-4-yl)-2-methyl-pyrazolo[4,3-c]pyridin-4-yl]oxyethyl]pyrrolidin-2-one] | > 50 | 0.0366 | 17.1 | –
C[C@@H](Oc1nc(-c2ccc(C(F)(F)F)cc2)cc2nn(C)cc12)[C@H]1CNC(=O)C1 [Example 60, (4R)-4-[(1R)-1-[2-methyl-6-[4-(trifluoromethyl)phenyl]-pyrazolo[4,3-c]pyridin-4-yl]-oxyethyl]pyrrolidin-2-one] | 34.7 | 0.145 | 9.75 | –
C[C@@H](Oc1nc(-c2cnn(C)c2)cc2nn(C)cc12)[C@H]1CNC(=O)C1 [Example 63, (4R)-4-[(1R)-1-[2-methyl-6-(1-methylpyrazol-4-yl)pyrazolo[4,3-c]pyridin-4-yl]oxyethyl]pyrrolidin-2-one] | > 50 | 0.0473 | 13.2 | –
C[C@@H](Oc1nc(-c2cnn(C3CCOCC3)c2)cc2nn(C)cc12)[C@H]1CNC(=O)C1 [Example 64, (4R)-4-[(1R)-1-[2-methyl-6-(1-tetrahydropyran-4-yl-pyrazol-4-yl)pyrazolo[4,3-c]pyridin-4-yl]oxyethyl]-pyrrolidin-2-one] | > 50 | 0.0258 | 21.6 | –
CC(C)n1cc(-c2cc3nn(C)cc3c(O[C@H](C)[C@H]3CNC(=O)C3)n2)cn1 [Example 65, (4R)-4-[(1R)-1-[6-(1-iso-propylpyrazol-4-yl)-2-methyl-pyrazolo[4,3-c]pyridin-4-yl]-oxyethyl]pyrrolidin-2-one] | > 50 | 0.0211 | 14.8 | –
C[C@@H](Oc1nc(-c2ccc(N3CCOCC3)nc2)cc2nn(C)cc12)[C@H]1CNC(=O)C1 [Example 66, (4R)-4-[(1R)-1-[2-methyl-6-(6-morpholino-3-pyridyl)-pyrazolo[4,3-c]pyridin-4-yl]oxyethyl]pyrrolidin-2-one] | > 50 | 0.0385 | 4.44 | –
Cc1nn(C)cc1-c1cc2nn(C)cc2c(O[C@H](C)[C@H]2CNC(=O)C2)n1 [Example 68, (4R)-4-[(1R)-1-[6-(1,3-dimethylpyrazol-4-yl)-2-methyl-pyrazolo[4,3-c]pyridin-4-yl]oxyethyl]pyrrolidin-2-one] | > 50 | 0.0652 | 22.4 | –
Cc1c(-c2cc3nn(C)cc3c(O[C@H](C)[C@H]3CNC(=O)C3)n2)cnn1C [Example 69, (4R)-4-[(1R)-1-[6-(1,5-dimethylpyrazol-4-yl)-2-methyl-pyrazolo[4,3-c]pyridin-4-yl]oxyethyl]pyrrolidin-2-one] | > 50 | 0.197 | 45.1 | –
C[C@@H](Oc1nc(-c2cnn([C@H]3CCOC3)c2)cc2nn(C)cc12)[C@H]1CNC(=O)C1 [Example 70, (4R)-4-[(1R)-1-[2-methyl-6-[1-[(3S)-tetrahydrofuran-3-yl]pyrazol-4-yl]pyrazolo[4,3-c]pyridin-4-yl]oxyethyl]-pyrrolidin-2-one] | > 50 | 0.0345 | 17 | –
Cc1cc(-c2cc3nn(C)cc3c(O[C@H](C)[C@H]3CNC(=O)C3)n2)ccc1N1CCCS1(=O)=O [Example 71, (4R)-4-[(1R)-1-[6-[4-(1,1-dioxo-1,2-thiazolidin-2-yl)-3-methyl-phenyl]-2-methyl-pyrazolo[4,3-c]pyridin-4-yl]oxyethyl]pyrrolidin-2-one] | > 50 | 0.015 | 7.65 | –
C[C@@H](Oc1nc(-c2ccc3c(c2)CN(C)CC3)cc2nn(C)cc12)[C@H]1CNC(=O)C1 [Example 75, (4R)-4-[(1R)-1-[2-methyl-6-(2-methyl-3,4-dihydro-1H-isoquinolin-7-yl)pyrazolo[4,3-c]pyridin-4-yl]oxyethyl]-pyrrolidin-2-one] | 8.54 | 0.0998 | 1.59 | –
C[C@@H](Oc1nc(-c2cnn(CCC(F)(F)F)c2)cc2nn(C)cc12)[C@H]1CNC(=O)C1 [Example 76, (4R)-4-[(1R)-1-[2-methyl-6-[1-(3,3,3-trifluoropropyl)-pyrazol-4-yl]pyrazolo[4,3-c]pyridin-4-yl]oxyethyl]-pyrrolidin-2-one] | 46.2 | 0.0583 | 14.8 | –
C[C@@H](Oc1nc(-c2cc3cccc(Cl)c3[nH]2)cc2nn(C)cc12)[C@H]1CNC(=O)C1 [Example 77, (4R)-4-[(1R)-1-[6-(7-chloro-1H-indol-2-yl)-2-methyl-pyrazolo[4,3-c]pyridin-4-yl]oxyethyl]pyrrolidin-2-on] | 43.4 | 0.0498 | 3.75 | –
C[C@@H](Oc1nc(-c2cnn(C3CC3)c2)cc2nn(C)cc12)[C@H]1CNC(=O)C1 [Example 78, (4R)-4-[(1R)-1-[6-(1-cyclopropylpyrazol-4-yl)-2-methyl-pyrazolo[4,3-c]pyridin-4-yl]oxyethyl]pyrrolidin-2-one] | > 50 | 0.0359 | 22 | –
COc1cc(-c2cc(O[C@H](C)[C@H]3CNC(=O)C3)c3cccnc3c2)cc(OC)c1OC [example 2 of WO2013/014060, reference compound] | – | – | – | human liver microsomal stability CI [1]: 81 % Qh; IC50 [2, 6]: 16.9 µM
COc1cc(-c2cc3ncccc3c(O[C@H](C)[C@H]3CNC(=O)C3)n2)cc(OC)c1Cl [example 8 of WO 2011/092128, reference compound] | – | – | – | human liver microsomal stability CI [1]: 77 % Qh; IC50 [2, 6]: > 50 µM
